Laboratory results: patent publication US20160031839A1, “ARGININE […] INHIBITORS AND USES THEREOF” (EPIZYME, INC., priority 2013, published 2016)
Read-outs that look alike come from different tables or passages of the source.

Columns and labels:
PRMT1 = target: T1, PRMT1 (Homo sapiens, UniProt Q99873); experiment: PRMT1 Biochemical Assay
T1 construct: made in house; host or cells: High Five insect cells (baculovirus)
Excerpt: Peptide representative of human histone H4 residues 36-50 was synthesized with an N-terminal linker-affinity tag motif and a C-terminal amide cap by 21st Century Biochemicals. The peptide was purified by high-performance liquid chromatography (HPLC) to greater than 95% purity and confirmed by liquid chromatography mass spectrometry (LC-MS). The sequence was Biot-Ahx-[…]-amide (SEQ ID NO.:1).
Full-length human PRMT1 isoform 1 (NM_001536.5) transcript clone was amplified from an HEK 293 cDNA library, incorporating flanking 5′ sequence encoding a FLAG tag ([…]) (SEQ ID NO.:2) fused directly to Met 1 of PRMT1. The amplified gene was subcloned into pFastBacI (Life Technologies) modified to encode an N-terminal GST tag and a TEV cleavage sequence
GST-tagged PRMT1 was eluted with 50 mM Tris, 2 mM glutathione, pH 7.8, dialysed in buffer A and concentrated to 1 mg/mL. The purity of recovered protein was 73%. Reference: Wasilko, D. J. and S. E. Lee: “TIPS: titerless infected-cells preservation and scale-up” Bioprocess J., 5 (2006), pp. 29-32.
General Procedure for PRMT1 Enzyme Assays on Peptide Substrates.
The assays were all performed in a buffer consisting of 20 mM Bicine (pH=7.6), 1 mM TCEP, 0.005% BSG, and 0.002% Tween 20, prepared on the day of use. Compounds in 100% DMSO (1 ul) were spotted into a polypropylene 384-well V-bottom plates (Greiner) using a Platemate Plus outfitted with a 384-channel head (Thermo Scientific). DMSO (1 ul) was added to Columns 11, 12, 23, 24, rows A-H for the maximum signal control and 1 ul of SAH, a known product and inhibitor of PRMT1, was added to columns 11, 12, 23, 24, rows I-P for the minimum signal control. A cocktail (40 ul) containing the PRMT1 enzyme was added by Multidrop Combi (Thermo-Fisher). The compounds were allowed to incubate with PRMT1 for 30 min at room temperature, then a cocktail (10 ul) containing SAM and peptide was added to initiate the reaction (final volume=51 ul). The final concentrations of the components were as follows: PRMT1 was 0.5 nM, ^3H-SAM was 200 nM, non-radiolabeled SAM was 1.5 uM, peptide was 20 nM, SAH in the minimum signal control wells was 1 mM, and the DMSO concentration was 2%. The assays were stopped by the addition of non-radiolabeled SAM (10 ul) to a final concentration of 300 uM, which dilutes the ^3H-SAM to a level where its incorporation into the peptide substrate is no longer detectable. 50 ul of the reaction in the 384-well polypropylene plate was then transferred to a 384-well Flashplate and the biotinylated peptides were allowed to bind to the streptavidin surface for at least 1 hour before being washed once with 0.1% Tween20 in a Biotek ELx405 plate washer. The plates were then read in a PerkinElmer TopCount plate reader to measure the quantity of ^3H-labeled peptide bound to the Flashplate surface, measured as disintegrations per minute (dpm) or alternatively, referred to as counts per minute (cpm).
(§1) Where dpm=disintegrations per minute, cmpd=signal in assay well, and min and max are the respective minimum and maximum signal controls.
(§2) Where top and bottom are the normally allowed to float, but may be fixed at 100 or 0 respectively in a 3-parameter fit. The Hill Coefficient normally allowed to float but may also be fixed at 1 in a 3-parameter fit. Y is the % inhibition and X is the compound concentration.

PRMT6 = target: T2, PRMT6 (Homo sapiens, UniProt Q96LA8); experiment: PRMT6 Biochemical Assay
T2 construct: Expressed full-length human Flag- and His-tagged PRMT6 protein was purified from cell paste; made in house; host or cells: HEK 293F cells (BacMam baculovirus)
T2 sequence (Q96LA8 with tags, fused parts or gaps): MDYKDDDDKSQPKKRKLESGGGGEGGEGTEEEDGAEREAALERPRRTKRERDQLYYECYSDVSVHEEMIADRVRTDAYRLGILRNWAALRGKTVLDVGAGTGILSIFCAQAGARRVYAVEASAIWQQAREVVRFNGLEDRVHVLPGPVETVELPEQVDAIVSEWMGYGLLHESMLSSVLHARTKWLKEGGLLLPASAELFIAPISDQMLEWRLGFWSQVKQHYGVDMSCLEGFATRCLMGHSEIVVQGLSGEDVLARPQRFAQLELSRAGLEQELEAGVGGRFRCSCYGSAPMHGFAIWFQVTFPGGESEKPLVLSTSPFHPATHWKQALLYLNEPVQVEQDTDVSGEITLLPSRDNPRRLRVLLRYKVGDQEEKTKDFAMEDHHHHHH
Excerpt: Peptide representative of human histone H4 residues 36-50 was synthesized with an N-terminal linker-affinity tag motif and a C-terminal amide cap by 21st Century Biochemicals. The peptide was purified by high-performance liquid chromatography (HPLC) to greater than 95% purity and confirmed by liquid chromatography mass spectrometry (LC-MS). The sequence was Biot-Ahx-[…]-amide and contained a monomethylated lysine at position 44 (SEQ ID NO.:5).
Full-length human PRMT6 (NM_018137.2) transcript clone was amplified from an HEK 293 cDNA library, incorporating a flanking 5′ sequence encoding a FLAG tag ([…]) (SEQ ID NO.:6) fused directly to Ser 2 of PRMT6 and a 3′ sequence encoding a hexa His sequence (HHHHHH) (SEQ ID NO.:17) fused directly to Asp 375. The amplified gene was subcloned into pFastBacMam (Viva Biotech).
Column was washed with 20 mM imidazole in the same buffer and Flag-PRMT6-His was eluted with 150 mM imidazole. Pooled fractions were dialysed against buffer Ni-A and further purified by anti-flag M2 affinity chromatography. Flag-PRMT6-His was eluted with 200 ug/ml FLAG peptide in the same buffer. Pooled fractions were dialysed in 20 mM Tris, 150 mM NaCl, 10% glycerol and 5 mM (3-mercaptoethanol, pH 7.8. The purity of recovered protein was 95%.
General Procedure for PRMT6 Enzyme Assays on Peptide Substrates.
The assays were all performed in a buffer consisting of 20 mM Bicine (pH=7.6), 1 mM TCEP, 0.005% BSG, and 0.002% Tween 20, prepared on the day of use. Compounds in 100% DMSO (1 ul) were spotted into a polypropylene 384-well V-bottom plates (Greiner) using a Platemate Plus outfitted with a 384-channel head (Thermo Scientific). DMSO (1 ul) was added to Columns 11, 12, 23, 24, rows A-H for the maximum signal control and 1 ul of SAH, a known product and inhibitor of PRMT6, was added to columns 11, 12, 23, 24, rows I-P for the minimum signal control. A cocktail (40 ul) containing the PRMT6 enzyme was added by Multidrop Combi (Thermo-Fisher). The compounds were allowed to incubate with PRMT6 for 30 min at room temperature, then a cocktail (10 ul) containing SAM and peptide was added to initiate the reaction (final volume=51 ul). The final concentrations of the components were as follows: PRMT6 was 1 nM, ^3H-SAM was 200 nM, non-radiolabeled SAM was 250 nM, peptide was 75 nM, SAH in the minimum signal control wells was 1 mM, and the DMSO concentration was 2%. The assays were stopped by the addition of non-radiolabeled SAM (10 ul) to a final concentration of 400 uM, which dilutes the ^3H-SAM to a level where its incorporation into the peptide substrate is no longer detectable. 50 ul of the reaction in the 384-well polypropylene plate was then transferred to a 384-well Flashplate and the biotinylated peptides were allowed to bind to the streptavidin surface for at least 1 hour before being washed once with 0.1% Tween20 in a Biotek ELx405 plate washer. The plates were then read in a PerkinElmer TopCount plate reader to measure the quantity of ^3H-labeled peptide bound to the Flashplate surface, measured as disintegrations per minute (dpm) or alternatively, referred to as counts per minute (cpm).
as §1, §2

[1] = Table 2, biochemical evaluation, read-out: PRMT1 IC50 (class)
[2] = Table 2a, numerical, single experiment or average of multiple experiments, read-out: PRMT1 IC50
[3] = Table 2, biochemical evaluation, read-out: PRMT6 IC50 (class)
[4] = Table 2a, numerical, single experiment or average of multiple experiments, read-out: PRMT6 IC50

T1 sequence (Q99873 with tags, fused parts or gaps): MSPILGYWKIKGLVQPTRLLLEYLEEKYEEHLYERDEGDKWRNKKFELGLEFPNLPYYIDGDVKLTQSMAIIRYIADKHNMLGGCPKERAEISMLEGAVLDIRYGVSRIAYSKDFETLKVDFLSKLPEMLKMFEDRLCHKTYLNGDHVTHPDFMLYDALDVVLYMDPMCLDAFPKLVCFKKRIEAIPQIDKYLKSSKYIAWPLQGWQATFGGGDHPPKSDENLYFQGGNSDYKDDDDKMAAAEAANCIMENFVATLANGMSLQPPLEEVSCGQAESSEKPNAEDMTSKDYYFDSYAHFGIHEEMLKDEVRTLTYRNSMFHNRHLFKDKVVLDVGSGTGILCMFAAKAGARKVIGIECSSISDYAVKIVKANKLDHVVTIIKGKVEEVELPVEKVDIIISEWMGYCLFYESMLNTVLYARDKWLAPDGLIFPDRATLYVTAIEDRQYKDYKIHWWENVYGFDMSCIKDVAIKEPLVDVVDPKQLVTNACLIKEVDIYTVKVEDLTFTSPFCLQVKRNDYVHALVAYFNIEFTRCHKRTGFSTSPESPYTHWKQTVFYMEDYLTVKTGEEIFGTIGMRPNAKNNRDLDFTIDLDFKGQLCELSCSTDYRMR

| SMILES | IC50 (PRMT1; [1]) [nM] | IC50 (PRMT1; [2]) [nM] | IC50 (PRMT6; [3]) [nM] | IC50 (PRMT6; [4]) [nM] |
| --- | --- | --- | --- | --- |
| CN(CCN)Cc1ccnn1-c1ccc(C#N)cc1 [Compound 2, 4-(5-(((2-aminoethyl)(methyl)amino)methyl)-1H-pyrazol-1-yl)benzonitrile] | 101 to 1000 | 157 | < 100 | 98.7 |
| CN(CCN)Cc1ncoc1-c1ccc(C#N)cc1 [Compound 1, 4-(4-(((2-aminoethyl)(methyl)amino)methyl)oxazol-5-yl)benzonitrile] | 101 to 1000 | 314 | 101 to 1000 | 350 |
| CN(CCN)Cc1cnnn1-c1ccc(C#N)cc1 [Compound 5, 4-(5-(((2-aminoethyl)(methyl)amino)methyl)-1H-1,2,3-triazol-1-yl)benzonitrile] | > 10000 | > 10000 | > 10000 | > 10000 |
| CN(CCN)Cc1oncc1-c1ccc(F)cc1 [Compound 11, N^1-((4-(4-fluorophenyl)isoxazol-5-yl)methyl)-N^1-methylethane-1,2-diamine] | 1010 to 3000 | 2700 | 1010 to 3000 | 2950 |
| CN(CCN)Cc1[nH]cnc1-c1ccc(C#N)cc1 [Compound 10, 4-(5-(((2-aminoethyl)(methyl)amino)methyl)-1H-imidazol-4-yl)benzonitrile] | 101 to 1000 | 215 | 101 to 1000 | 168 |
| CN(CCN)Cc1n[nH]nc1-c1ccc(C#N)cc1 [Compound 3, 4-(5-(((2-aminoethyl)(methyl)amino)methyl)-2H-1,2,3-triazol-4-yl)benzonitrile] | < 100 | 82 | < 100 | 70.3 |
| CN(CCN)Cc1ocnc1-c1ccc(C#N)cc1 [Compound 4, 4-(5-(((2-aminoethyl)(methyl)amino)methyl)oxazol-4-yl)benzonitrile] | 101 to 1000 | 270 | 101 to 1000 | 168 |
| CN(CCN)Cc1nsnc1-c1ccc(C#N)cc1 [Compound 7, 4-(4-(((2-aminoethyl)(methyl)amino)methyl)-1,2,5-thiadiazol-3-yl)benzonitrile] | 101 to 1000 | 277 | 101 to 1000 | 112 |
| CN(CCN)Cc1ccnn1-c1ccc(Oc2ccccc2)cc1 [Compound 9] | < 100 | 15.4 | < 100 | 6.72 |
| CC(C)Oc1ccc(-n2nccc2CN(C)CCN)cc1 [Compound 8, N^1-((1-(4-isopropoxyphenyl)-1H-pyrazol-5-yl)methyl)-N^1-methylethane-1,2-diamine] | < 100 | 13.9 | < 100 | 46.4 |
| CN(CCN)Cc1cncn1-c1ccc(C#N)cc1 [Compound 6, 4-(5-(((2-aminoethyl)(methyl)amino)methyl)-1H-imidazol-1-yl)benzonitrile] | 1010 to 3000 | 1680 | 1010 to 3000 | 1090 |
